Measurements from PMC6120666 (The EMBO Journal, 2018).

How the values were obtained:
Assay in all cases: Drug affinity chromatography with c-ponatinib and LC-MS/MS (ponatinib interactome)
Type in all cases: binding
[1] = molecular target: T1, proteins of U2OS cell lysate (Homo sapiens, UniProt P17987)
T1 construct: Proteins enriched by c-ponatinib from U2OS cell lysate; endogenous in cells; host or cells: U2OS cell lysate
Outline: (§1)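 Proteins were identified by nano-UPLC–MS/MS after elution with formic acid and trypsin digestion. They were captured from U2OS lysate (2 mg protein per pulldown, NP-40 buffer) on amine-coupled NHS beads during a 2 h incubation at 4 °C.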

[2] = molecular target: T2, proteins of U2OS cell lysate (Homo sapiens, UniProt Q12874)
T2 construct: Proteins enriched by c-ponatinib from U2OS cell lysate; endogenous in cells; host or cells: U2OS cell lysate
Outline: as §1

[3] = molecular target: T3, proteins of U2OS cell lysate (Homo sapiens, UniProt Q16891)
T3 construct: Proteins enriched by c-ponatinib from U2OS cell lysate; endogenous in cells; host or cells: U2OS cell lysate
Outline: as §1

[4] = molecular target: T4, proteins of U2OS cell lysate (Homo sapiens, UniProt Q13247)
T4 construct: Proteins enriched by c-ponatinib from U2OS cell lysate; endogenous in cells; host or cells: U2OS cell lysate
Outline: as §1

[5] = molecular target: T5, proteins of U2OS cell lysate (Homo sapiens, UniProt P40227)
T5 construct: Proteins enriched by c-ponatinib from U2OS cell lysate; endogenous in cells; host or cells: U2OS cell lysate
Outline: as §1

[6] = molecular target: T6, proteins of U2OS cell lysate (Homo sapiens, UniProt P49327)
T6 construct: Proteins enriched by c-ponatinib from U2OS cell lysate; endogenous in cells; host or cells: U2OS cell lysate
Outline: as §1

[7] = molecular target: T7, proteins of U2OS cell lysate (Homo sapiens, UniProt O15372)
T7 construct: Proteins enriched by c-ponatinib from U2OS cell lysate; endogenous in cells; host or cells: U2OS cell lysate
Outline: as §1

[8] = molecular target: T8, proteins of U2OS cell lysate (Homo sapiens, UniProt Q9BUF5)
T8 construct: Proteins enriched by c-ponatinib from U2OS cell lysate; endogenous in cells; host or cells: U2OS cell lysate
Outline: as §1

[9] = molecular target: T9, proteins of U2OS cell lysate (Homo sapiens, UniProt Q9UP83)
T9 construct: Proteins enriched by c-ponatinib from U2OS cell lysate; endogenous in cells; host or cells: U2OS cell lysate
Outline: as §1

[10] = molecular target: T10, proteins of U2OS cell lysate (Homo sapiens, UniProt P30049)
T10 construct: Proteins enriched by c-ponatinib from U2OS cell lysate; endogenous in cells; host or cells: U2OS cell lysate
Outline: as §1

[11] = molecular target: T11, proteins of U2OS cell lysate (Homo sapiens, UniProt P60228)
T11 construct: Proteins enriched by c-ponatinib from U2OS cell lysate; endogenous in cells; host or cells: U2OS cell lysate
Outline: as §1

[12] = molecular target: T12, proteins of U2OS cell lysate (Homo sapiens, UniProt P19338)
T12 construct: Proteins enriched by c-ponatinib from U2OS cell lysate; endogenous in cells; host or cells: U2OS cell lysate
Outline: as §1

[13] = molecular target: T13, proteins of U2OS cell lysate (Homo sapiens, UniProt P62263)
T13 construct: Proteins enriched by c-ponatinib from U2OS cell lysate; endogenous in cells; host or cells: U2OS cell lysate
Outline: as §1

[14] = molecular target: T14, proteins of U2OS cell lysate (Homo sapiens, UniProt Q9NVA2)
T14 construct: Proteins enriched by c-ponatinib from U2OS cell lysate; endogenous in cells; host or cells: U2OS cell lysate
Outline: as §1

[15] = molecular target: T15, proteins of U2OS cell lysate (Homo sapiens, UniProt P53999)
T15 construct: Proteins enriched by c-ponatinib from U2OS cell lysate; endogenous in cells; host or cells: U2OS cell lysate
Outline: as §1

[16] = molecular target: T16, proteins of U2OS cell lysate (Homo sapiens, UniProt P25786)
T16 construct: Proteins enriched by c-ponatinib from U2OS cell lysate; endogenous in cells; host or cells: U2OS cell lysate
Outline: as §1

[17] = molecular target: T17, proteins of U2OS cell lysate (Homo sapiens, UniProt Q9NX63)
T17 construct: Proteins enriched by c-ponatinib from U2OS cell lysate; endogenous in cells; host or cells: U2OS cell lysate
Outline: as §1

[18] = molecular target: T18, proteins of U2OS cell lysate (Homo sapiens, UniProt Q15393)
T18 construct: Proteins enriched by c-ponatinib from U2OS cell lysate; endogenous in cells; host or cells: U2OS cell lysate
Outline: as §1

[19] = molecular target: T19, proteins of U2OS cell lysate (Homo sapiens, UniProt P12814)
T19 construct: Proteins enriched by c-ponatinib from U2OS cell lysate; endogenous in cells; host or cells: U2OS cell lysate
Outline: as §1

T14 sequence (Q9NVA2 whole entry): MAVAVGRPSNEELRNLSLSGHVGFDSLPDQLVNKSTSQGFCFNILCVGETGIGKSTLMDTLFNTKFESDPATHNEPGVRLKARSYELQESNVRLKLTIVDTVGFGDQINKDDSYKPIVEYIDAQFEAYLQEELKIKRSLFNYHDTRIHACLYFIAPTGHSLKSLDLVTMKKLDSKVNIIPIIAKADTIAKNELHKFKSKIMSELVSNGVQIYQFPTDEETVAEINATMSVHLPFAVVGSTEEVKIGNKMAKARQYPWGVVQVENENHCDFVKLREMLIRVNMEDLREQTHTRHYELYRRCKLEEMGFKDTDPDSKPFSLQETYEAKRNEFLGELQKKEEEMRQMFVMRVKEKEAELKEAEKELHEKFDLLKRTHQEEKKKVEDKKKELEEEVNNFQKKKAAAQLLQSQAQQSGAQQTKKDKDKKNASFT
T19 sequence (P12814 whole entry): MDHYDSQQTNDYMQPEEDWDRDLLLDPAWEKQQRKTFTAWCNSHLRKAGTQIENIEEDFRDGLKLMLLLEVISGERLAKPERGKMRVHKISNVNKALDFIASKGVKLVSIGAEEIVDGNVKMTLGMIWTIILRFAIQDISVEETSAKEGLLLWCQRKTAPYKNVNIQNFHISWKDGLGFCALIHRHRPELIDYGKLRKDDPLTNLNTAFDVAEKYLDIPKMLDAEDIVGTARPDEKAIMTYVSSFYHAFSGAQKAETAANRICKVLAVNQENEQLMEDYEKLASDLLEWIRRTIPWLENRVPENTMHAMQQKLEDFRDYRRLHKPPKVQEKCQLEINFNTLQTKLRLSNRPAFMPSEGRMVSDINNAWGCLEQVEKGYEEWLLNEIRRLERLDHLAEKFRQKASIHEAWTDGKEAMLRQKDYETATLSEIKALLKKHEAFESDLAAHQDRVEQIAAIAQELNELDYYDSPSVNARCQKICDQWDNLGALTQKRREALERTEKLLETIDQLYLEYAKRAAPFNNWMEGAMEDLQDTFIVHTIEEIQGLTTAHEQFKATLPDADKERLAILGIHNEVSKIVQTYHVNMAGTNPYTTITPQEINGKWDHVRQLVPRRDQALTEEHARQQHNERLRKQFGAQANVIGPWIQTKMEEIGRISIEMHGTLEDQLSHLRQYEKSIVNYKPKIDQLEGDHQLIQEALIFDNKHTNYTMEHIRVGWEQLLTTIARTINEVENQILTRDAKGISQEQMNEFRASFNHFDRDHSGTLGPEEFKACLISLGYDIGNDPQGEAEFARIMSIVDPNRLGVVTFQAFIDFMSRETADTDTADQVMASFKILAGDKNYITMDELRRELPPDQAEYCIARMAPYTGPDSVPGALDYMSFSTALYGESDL
T7 sequence (O15372 whole entry): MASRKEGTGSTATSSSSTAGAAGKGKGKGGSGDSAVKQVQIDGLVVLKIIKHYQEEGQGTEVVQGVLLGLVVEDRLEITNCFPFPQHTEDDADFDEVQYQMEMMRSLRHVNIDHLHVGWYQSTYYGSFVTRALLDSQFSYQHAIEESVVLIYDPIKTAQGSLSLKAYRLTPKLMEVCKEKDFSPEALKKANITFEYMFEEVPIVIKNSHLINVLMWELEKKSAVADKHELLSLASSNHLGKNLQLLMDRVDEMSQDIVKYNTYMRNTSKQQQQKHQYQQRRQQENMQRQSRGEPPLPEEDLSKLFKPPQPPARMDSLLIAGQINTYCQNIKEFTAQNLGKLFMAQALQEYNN
T5 sequence (P40227 whole entry): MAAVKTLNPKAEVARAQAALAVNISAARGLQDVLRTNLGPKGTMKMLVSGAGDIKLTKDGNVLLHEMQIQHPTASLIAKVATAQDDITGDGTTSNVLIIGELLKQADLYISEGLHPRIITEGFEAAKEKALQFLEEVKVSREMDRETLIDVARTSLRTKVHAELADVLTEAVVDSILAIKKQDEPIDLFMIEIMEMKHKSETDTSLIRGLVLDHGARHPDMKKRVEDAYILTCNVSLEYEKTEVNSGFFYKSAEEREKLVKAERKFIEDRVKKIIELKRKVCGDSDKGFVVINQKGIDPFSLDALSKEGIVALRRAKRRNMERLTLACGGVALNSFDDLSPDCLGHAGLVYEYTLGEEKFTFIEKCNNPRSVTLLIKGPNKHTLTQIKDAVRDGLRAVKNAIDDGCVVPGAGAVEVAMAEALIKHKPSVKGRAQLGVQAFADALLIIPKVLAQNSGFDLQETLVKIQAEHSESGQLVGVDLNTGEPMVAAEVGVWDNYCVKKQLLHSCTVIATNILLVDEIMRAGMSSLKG
T1 sequence (P17987 whole entry): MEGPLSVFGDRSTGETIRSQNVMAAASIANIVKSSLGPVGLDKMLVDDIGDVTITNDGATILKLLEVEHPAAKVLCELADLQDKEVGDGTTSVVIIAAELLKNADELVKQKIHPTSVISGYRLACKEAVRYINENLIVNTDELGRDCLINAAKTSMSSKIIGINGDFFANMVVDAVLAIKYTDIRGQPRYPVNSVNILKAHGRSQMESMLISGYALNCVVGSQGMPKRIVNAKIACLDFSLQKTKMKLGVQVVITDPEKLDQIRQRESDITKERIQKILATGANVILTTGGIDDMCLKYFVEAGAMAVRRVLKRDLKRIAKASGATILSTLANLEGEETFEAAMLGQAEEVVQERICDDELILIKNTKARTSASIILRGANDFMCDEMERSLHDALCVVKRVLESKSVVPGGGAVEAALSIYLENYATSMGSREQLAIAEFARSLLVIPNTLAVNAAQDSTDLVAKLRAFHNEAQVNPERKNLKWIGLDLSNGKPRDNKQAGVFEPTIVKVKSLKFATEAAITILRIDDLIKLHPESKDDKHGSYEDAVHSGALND
T9 sequence (Q9UP83 whole entry): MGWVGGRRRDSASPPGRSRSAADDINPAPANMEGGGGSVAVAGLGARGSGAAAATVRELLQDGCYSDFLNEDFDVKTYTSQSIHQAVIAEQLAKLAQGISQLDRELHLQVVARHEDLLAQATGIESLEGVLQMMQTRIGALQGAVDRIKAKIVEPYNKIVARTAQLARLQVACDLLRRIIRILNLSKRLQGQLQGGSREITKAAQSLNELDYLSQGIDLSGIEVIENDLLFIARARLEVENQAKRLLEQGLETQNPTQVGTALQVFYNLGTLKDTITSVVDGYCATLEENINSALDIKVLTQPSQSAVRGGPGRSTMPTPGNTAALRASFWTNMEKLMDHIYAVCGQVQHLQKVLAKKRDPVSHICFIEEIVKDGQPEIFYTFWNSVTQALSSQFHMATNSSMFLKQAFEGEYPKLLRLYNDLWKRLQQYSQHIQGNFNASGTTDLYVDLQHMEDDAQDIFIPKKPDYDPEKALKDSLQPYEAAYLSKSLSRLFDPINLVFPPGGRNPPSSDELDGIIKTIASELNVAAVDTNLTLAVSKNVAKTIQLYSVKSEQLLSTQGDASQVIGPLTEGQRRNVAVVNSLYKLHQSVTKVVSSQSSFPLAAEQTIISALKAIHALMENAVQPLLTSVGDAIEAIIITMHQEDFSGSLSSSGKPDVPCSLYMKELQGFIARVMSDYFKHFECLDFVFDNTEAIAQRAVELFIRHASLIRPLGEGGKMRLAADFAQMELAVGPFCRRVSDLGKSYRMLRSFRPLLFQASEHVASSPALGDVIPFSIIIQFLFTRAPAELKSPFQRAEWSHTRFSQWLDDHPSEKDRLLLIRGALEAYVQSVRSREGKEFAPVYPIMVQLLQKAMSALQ
T18 sequence (Q15393 whole entry): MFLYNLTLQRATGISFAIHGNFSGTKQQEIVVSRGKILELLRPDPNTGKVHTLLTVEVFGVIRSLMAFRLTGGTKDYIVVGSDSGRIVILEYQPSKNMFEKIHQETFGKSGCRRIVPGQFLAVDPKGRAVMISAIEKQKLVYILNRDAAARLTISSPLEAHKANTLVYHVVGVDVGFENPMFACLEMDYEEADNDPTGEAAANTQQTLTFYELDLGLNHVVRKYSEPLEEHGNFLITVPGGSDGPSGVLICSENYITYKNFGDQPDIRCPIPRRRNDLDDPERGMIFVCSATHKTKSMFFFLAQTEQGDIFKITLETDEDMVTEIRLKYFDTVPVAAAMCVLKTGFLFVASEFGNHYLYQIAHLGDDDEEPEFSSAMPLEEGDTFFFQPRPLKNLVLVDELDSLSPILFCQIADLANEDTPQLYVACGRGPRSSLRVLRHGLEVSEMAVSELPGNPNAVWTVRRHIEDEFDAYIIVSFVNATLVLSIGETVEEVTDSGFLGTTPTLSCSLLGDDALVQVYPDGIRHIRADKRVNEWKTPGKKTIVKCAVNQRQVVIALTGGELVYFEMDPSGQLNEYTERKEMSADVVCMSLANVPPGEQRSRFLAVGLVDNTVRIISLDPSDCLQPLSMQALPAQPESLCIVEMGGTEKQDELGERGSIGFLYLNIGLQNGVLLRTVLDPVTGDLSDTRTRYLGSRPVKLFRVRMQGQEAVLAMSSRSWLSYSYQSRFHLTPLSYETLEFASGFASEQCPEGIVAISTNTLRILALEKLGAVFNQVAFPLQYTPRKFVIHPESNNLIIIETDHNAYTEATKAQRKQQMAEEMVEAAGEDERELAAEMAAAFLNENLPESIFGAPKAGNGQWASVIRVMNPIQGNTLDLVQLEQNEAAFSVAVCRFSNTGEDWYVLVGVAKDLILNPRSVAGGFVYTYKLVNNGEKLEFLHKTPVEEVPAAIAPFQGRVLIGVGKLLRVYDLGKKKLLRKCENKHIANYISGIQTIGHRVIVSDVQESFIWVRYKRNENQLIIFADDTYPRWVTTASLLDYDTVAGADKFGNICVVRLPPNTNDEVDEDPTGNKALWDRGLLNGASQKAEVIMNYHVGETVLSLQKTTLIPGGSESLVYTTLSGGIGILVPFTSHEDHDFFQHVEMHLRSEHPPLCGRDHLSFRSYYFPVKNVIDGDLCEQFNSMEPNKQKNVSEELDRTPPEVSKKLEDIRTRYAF
T10 sequence (P30049 23-168): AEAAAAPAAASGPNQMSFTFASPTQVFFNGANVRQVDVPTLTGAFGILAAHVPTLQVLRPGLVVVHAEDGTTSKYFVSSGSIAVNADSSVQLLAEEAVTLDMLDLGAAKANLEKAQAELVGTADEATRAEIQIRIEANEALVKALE

Cc1ccc(C(=O)Nc2ccc(CN3CCN(C)CC3)c(C(F)(F)F)c2)cc1C#Cc1cnc2cccnn12 [PON]
Average LFQ PON_WT ([1]; TCP1, T-complex protein 1 subunit alpha): 22.697 | Average LFQ PON_WT ([2]; SF3A3, Splicing factor 3A subunit 3): 21.5172 | Average LFQ PON_WT ([3]; IMMT, Mitochondrial inner membrane protein): 22.0335 | Average LFQ PON_WT ([4]; SRSF6, Serine/arginine-rich splicing factor 6): 21.8714 | Average LFQ PON_WT ([5]; CCT6A, T-complex protein 1 subunit zeta): 22.8673 | Average LFQ PON_WT ([6]; FASN, Fatty acid synthase): 22.4378 | Average LFQ PON_WT ([7]; EIF3H;EIF3S3, Eukaryotic translation initiation factor 3 subunit H): 23.1902 | Average LFQ PON_WT ([8]; TUBB6, Tubulin beta-6 chain): 22.6671 | Average LFQ PON_WT ([9]; COG5, Conserved oligomeric Golgi complex subunit 5): 22.09 | Average LFQ PON_WT ([10]; ATP5D, ATP synthase subunit delta, mitochondrial): 23.0608 | Average LFQ PON_WT ([11]; EIF3E, Eukaryotic translation initiation factor 3 subunit E): 22.7111 | Average LFQ PON_WT ([12]; NCL, Nucleolin): 23.1289 | Average LFQ PON_WT ([13]; RPS14, 40S ribosomal protein S14): 22.2776 | Average LFQ PON_WT ([14]; SEPT11, Septin-11): 21.5746 | Average LFQ PON_WT ([15]; SUB1, Activated RNA polymerase II transcriptional coactivator p15): 22.9694 | Average LFQ PON_WT ([16]; PSMA1, Proteasome subunit alpha type-1): 22.7928 | Average LFQ PON_WT ([17]; CHCHD3, Coiled-coil-helix-coiled-coil-helix domain-containing protein 3, mitochondrial): 22.5984 | Average LFQ PON_WT ([18]; SF3B3, Splicing factor 3B subunit 3): 22.7469 | Average LFQ PON_WT ([19]; ACTN1, Alpha-actinin-1): 22.3393

Cc1ccc(C(=O)Nc2ccc(CN3CCN(CCCN)CC3)c(C(F)(F)F)c2)cc1C#Cc1cnc2cccnn12 [c-ponatinib, reference compound]
Average LFQ intensity ([1]; captured protein TCP1, Rank 149): 22.697 | Average LFQ intensity ([2]; captured protein SF3A3, Rank 228): 21.5172 | Average LFQ intensity ([3]; captured protein IMMT, Rank 188): 22.0335 | Average LFQ intensity ([4]; captured protein SRSF6, Rank 196): 21.8714 | Average LFQ intensity ([5]; captured protein CCT6A, Rank 133): 22.8673 | Average LFQ intensity ([6]; captured protein FASN, Rank 161): 22.4378 | Average LFQ intensity ([7]; captured protein EIF3H;EIF3S3, Rank 114): 23.1902 | Average LFQ intensity ([8]; captured protein TUBB6, Rank 151): 22.6671 | Average LFQ intensity ([9]; captured protein COG5, Rank 186): 22.09 | Average LFQ intensity ([10]; captured protein ATP5D, Rank 121): 23.0608 | Average LFQ intensity ([11]; captured protein EIF3E, Rank 148): 22.7111 | Average LFQ intensity ([12]; captured protein NCL, Rank 117): 23.1289 | Average LFQ intensity ([13]; captured protein RPS14, Rank 169): 22.2776 | Average LFQ intensity ([14]; captured protein 2011-09-01 (Septin-11), Rank 222): 21.5746 | Average LFQ intensity ([15]; captured protein SUB1, Rank 126): 22.9694 | Average LFQ intensity ([16]; captured protein PSMA1, Rank 138): 22.7928 | Average LFQ intensity ([17]; captured protein CHCHD3, Rank 154): 22.5984 | Average LFQ intensity ([18]; captured protein SF3B3, Rank 141): 22.7469 | Average LFQ intensity ([19]; captured protein ACTN1, Rank 166): 22.3393
